Here are results for 3 molecules from US20050164331A1, “Method and device for detecting toxic material in water using microbial fuel cell” (priority 2002, published 2005).

Molecules are shown by their SMILES. Like-named read-outs stand apart in the source and are kept apart here.

The test system of series [1] is electrochemically active bacteria in the sludge.
Excerpt: The sample enters into the anode part after passing through the first and the second pretreatment tanks(2,3). The anode part is composed of a carbon felt and platinum(Pt) wire, while its inside part is filled usually with a microorganism catalyst which generates electrochemical energy using organic raw material. The cathode part is filled with ordinary water. Namely, the sample containing organic materials enters into the anode and the water-saturated with air enters the cathode. Now the organic materials are decomposed by microorganism at the anode part of the fuel cell and a current is generated. The current moves along the Pt wire and is measured by the voltmeter.
Active sludge was introduced into the anode part so that the electrochemically active bacteria in the sludge are attached to the electrode and densely cultured. To the cathode part, water saturated with air was incorporated, keeping a certain potential difference so as to make an efficient biological electrochemical reaction occur in the microbial fuel cell. Into this microbial fuel cell, added were glucose and glutamic acid(CODcr 200 ppm, which means the chemical oxygen demand due to the potassium dichromate) as fuel and the generated current was measured by the volt meter(2000 multimeter, Keithley Instrument. Inc, USA) at 60 seconds interval, while adding to the used fuel cell, Cr^6+ standard solution successively in the concentration of 0.01 ppm, 0.02 ppm, 0.03 ppm, 0.04 ppm and 0.05 ppm.
The subject of another series is golden dace. To be noted: 8 ppm phenol introduced to water; cited from earlier work.
Setting [2] is: microbial fuel cell with active sludge, fuel glucose and glutamic acid (CODcr 200 ppm), standard solution added successively at 0.01-0.05 ppm, current measured at 60 seconds interval.

Regarding `Oc1ccccc1` [phenol], in series [1], the “concentration at which the constantly generated current showed a sharp drop” value (from here on “concentration”) is reported as 0.03 ppm. In addition, the “time required to determine the toxicity using fish” value in the series on golden dace was 8 h. With `[Pb]` [Pb, lead], the “concentration” value in series [1] (setting [2]) is reported as 0.04 ppm. On to `[Cr+6]` [Cr^6+], for which the “concentration” value in series [1] (setting [2]) is 0.04 ppm.
